Experimental data: US9469854B2, “Pharmaceutical composition for treating liver diseases” (Academia Sinica, priority 2014, dated 2016)

How the values were obtained:
Format in all cases: cell-based, human
[1] = test system: exon 23 of ACACB; test: Reporter examination of miR-21-3p and ACACB (technology similar to Example 6)
Description: (§1) The HEK-293T and HepG2 cells were seeded at a density of 5×10^4 cells per well in a 24-well culture plate the day before transfection. The HEK-293T and HepG2 cells were tri-transfected with (1) any one of the above-mentioned pMIR-REPORT-3′ UTR construction (300 ng), (2) the control Renilla luciferase reporter plasmid pRL-TK from Promega (10 ng), and (3) 50 nM of hsa-miR-21-3p mimic or negative-control mimic by using the Lipofectamine 2000 transfection reagent (Invitrogen) according to the manufacturer's instructions. Luciferase assays were performed after transfection for 48 h by using the Dual Luciferase reporter assay kit (Promega) and the Paradigm detection platform (Beckman) according to the manufacturer's protocol. The firefly luciferase activity was normalized relative to the Renilla luciferase activity.

[2] = test system: MAT2A 3′ UTR; test: Dual luciferase reporter assay in HepG2 cells
Description: (§2) Full-length 3′ UTRs of MAT2A and MAT2B were amplified from the genomic DNA of HepG2 cells through PCR.
(§3) The PCR products were then cloned into the pMIR-REPORT Luciferase miRNA Expression Reporter Vector (Invitrogen), and all inserted sequences in the 3′ UTR constructs were checked using the ABI PRISM DNA sequencer.
(§4) The mutagenesis of the target sequences of hsa-miR-21-3p in MAT2A and MAT2B 3′ UTRs was performed using the QuikChange site-directed mutagenesis kit (Agilent) according to the manufacturer's standard protocol.
(§5) All mutated sequences, including Site 1, Site 2 and the double mutation of the MAT2A and the 3′ UTR mutant construct of MAT2B, were checked through DNA sequencing.
as §1

[3] = test system: MAT2B 3′ UTR; test: Dual luciferase reporter assay in HepG2 cells
Description: as §2, §3, §4, §5, §1

[4] = test system: 3′ UTR sequence of DGAT2; test: Reporter examination of miR-21-3p and DGAT2 3′ UTR (technology similar to Example 6)
Description: as §1

[5] = test system: intracellular SAM; test: Measurement of intracellular SAM concentration in HepG2 cells
Description: […] The intracellular SAM of 5×10^4 HepG2 cells pellet was resuspended in […] of an extraction solution (0.2% perchloric acid plus 0.08% (v/v) 2-mercaptoethanol in ddH2O). Cells were incubated at room temperature for 1 h and vortexed every 5 min. The suspension was centrifuged at 4° C. at 10000×g for 5 min, and then the supernatant was collected. SAM levels in the supernatants were quantified using the Bridge-It SAM fluorescence assay kit (Mediomics) and detected using SpectraMax plate reader (Molecular Devices) according to the manufacturer's instructions.

[6] = HepG2, wild-type 3′ UTR, 50 nM mimic, 48 h

## hsa-miR-21-3p (CAACACCAGUCGAUGGGCUGU; listed as RNA, chemistry not given here) [miR-21-3p mimic]
[1]
  suppression of ACACB expression by binding exon 23: 1.4 fold
[2]; HepG2, Site 1 (+180-200) mutated
  luciferase reporter expression decrease, Site 1 mutated MAT2A 3′ UTR: 1.5 fold
[2]; [6]
  luciferase reporter expression decrease, MAT2A 3′ UTR: 1.5 fold
[2]; Site 2 (+1267-1288) mutated, cells not named in sentence (FIG. 5C: HEK293T and HepG2)
  luciferase reporter expression change, Site 2 mutated MAT2A 3′ UTR: did not notably change
[2]; both Site 1 and Site 2 mutated, cells not named in sentence (FIG. 5C: HEK293T and HepG2)
  luciferase reporter expression change, double-mutated MAT2A 3′ UTR: did not notably change
[3]; HepG2, seed match (+399-418) mutated
  luciferase reporter expression change, mutated MAT2B 3′ UTR: remained unchanged
[3]; [6]
  luciferase reporter expression decrease, MAT2B 3′ UTR: 1.4 fold
[4]
  suppression of DGAT2 expression by pairing with 3′ UTR: 1.4 fold
[5]; HepG2, mimic transfection 48 h vs NC mimic
  intracellular SAM contents increase: 1.6 fold
[5]; HepG2, mimic transfection 72 h vs NC mimic
  intracellular SAM contents increase: 3.0 fold
